Test results as given in patent publication US20140314697A1, “Method for Inhibiting Inflammation and Reducing Melanophilin Expression with Glycine Derivatives And the Composition Thereof” (CORUM INC., priority 2013, published 2014).

Test system: Human IL-6 secretion, Normal Human Epidermal Keratinocytes (NHEK)
Assay: Human IL-6 production in UVB-irradiated NHEK (ELISA)
Format: cell-based
Conditions: for Human IL-6 Content, Average: 40 mJ/cm^2 UVB; for Human IL-6 Content, Average / Human IL-6 Content, Entry 1 / Human IL-6 Content, Entry 2 / Human IL-6 Content, Entry 3 / Human IL-6 Content, Entry4: Positive Control 100%; for Human IL-6 Content, Entry 1 / Human IL-6 Content, Entry 2: passage 2 + 2, 40 mJ/cm^2 UVB; for Human IL-6 Content, Entry 3 / Human IL-6 Content, Entry4: passage 2 + 3, 40 mJ/cm^2 UVB
Description: Normal Human Epidermal Keratinocytes (NHEK) (PromoCell No. C-12008);
Positive Control: 40 mJ/cm^2 UVB,
Negative Control: No UVB irradiation;
a. Rinse the confluent NHEK cells with sterile D-PBS then trypsinize all cells and perform cell counting.
b. Dilute the cell density to 4˜8E+04/mL and seed 0.5 mL cell liquid (equals to 2˜4E+04 cells) each well in 24 well plate.
c. Incubate NHEK cells at 37° C., 5% CO2 until subconfluence.
d. Prepared dosing solution of testing material in Complete Medium: 0.4%, 0.2%, 0.1%, 0.05%.
e. Rinse the NHEK cells with sterile D-PBS and discard rinse buffer. Add 400 μL of controls and testing materials in different concentrations into NHEK cells in 24 well plates.
f. Pre-incubate NHEK cells with testing material at 37° C., 5% CO2 for about 6 hours.
g. After pre-incubating for about 6 hours, wash the NHEK cells with sterile D-PBS for twice then add […] sterile D-PBS for UVB irradiation.
h. UVB intensity is about 2300 μW/cm^2 and UVB energy is about 40 mJ/cm^2.
i. After UVB irradiation, discard sterile D-PBS and wash again. Add 400 μL of the same dosing solution in to each wells.
j. Post-incubate at 37° C., 5% CO2 for about 18 hours.
k. After post-incubating for 18 hours, collect the supernatant of controls and testing materials.
l. Determine the IL-6/IL-8 content of the supernatant by R&D ELISA kit as mentioned previously.
Normal Human Epidermal Keratinocytes (NHEK) were treated by the above-mentioned glycine derivatives for evaluating their anti-inflammatory effect on keratinocytes in this example.

CC(=O)NCC(=O)NCCC(=O)O [Ac-Gly-β-Ala, 3-(2-acetylamino-acetylamino)-propionic acid]
IL-6 production, dose dependence (0.05%-0.4%, UVB): dose-dependently inhibited
Human IL-6 Content, Average (Table 6, 0.05%): 59%
Human IL-6 Content, Entry 1 (Table 6, 0.05%): 68%
Human IL-6 Content, Entry 2 (Table 6, 0.05%): 58%
Human IL-6 Content, Entry 3 (Table 6, 0.05%): 49%
Human IL-6 Content, Entry4 (Table 6, 0.05%): 62%
Human IL-6 Content, Average (Table 6, 0.10%): 34%
Human IL-6 Content, Entry 1 (Table 6, 0.10%): 43%
Human IL-6 Content, Entry 2 (Table 6, 0.10%): 25%
Human IL-6 Content, Entry 3 (Table 6, 0.10%): 28%
Human IL-6 Content, Entry4 (Table 6, 0.10%): 42%
Human IL-6 Content, Average (Table 6, 0.20%): 15%
Human IL-6 Content, Entry 1 (Table 6, 0.20%): 19%
Human IL-6 Content, Entry 2 (Table 6, 0.20%): 10%
Human IL-6 Content, Entry 3 (Table 6, 0.20%): 10%
Human IL-6 Content, Entry4 (Table 6, 0.20%): 20%
Human IL-6 Content, Entry 1 (Table 6, 0.40%): 0%
Human IL-6 Content, Entry 2 (Table 6, 0.40%): 0%
Human IL-6 Content, Entry 3 (Table 6, 0.40%): 0%
Human IL-6 Content, Entry4 (Table 6, 0.40%): 10%
